According to PMC3585964, “Tissue Inhibitor of Metalloproteinases-3 Peptides Inhibit Angiogenesis and Choroidal Neovascularization in Mice” (PLoS ONE, 2013):

Tested on: laser-induced CNV in C57BL/6J mice
Test: Laser-induced choroidal neovascularization (CNV)
Assay type: in vivo, mouse
Details: intravitreal, immediately after laser burn, 14 days, C57BL6 mice
Experimental: All animal studies were approved by the Animal Care and Use Committee of the Cleveland Clinic (IACUC number ARC-08792) and conformed to the National Institutes of Health Guide for the Care and Use of Animals in Research and the ARVO statement for the use of animals in ophthalmic and vision research. All surgery was performed under ketamine/xylazine anesthesia with maximum effort devoted to minimizing suffering. Laser photocoagulation-induced rupture of Bruch’s membrane was used to generate CNV as previously described. Briefly, 4–5 week old C57BL/6J mice were anesthetized with ketamine hydrochloride (100 mg/kg body weight) and xylazine (10 mg/kg body weight) followed by1% Tropicamide (Alcon laboratories, Inc., Fort Worth, TX) for pupillary dilation. Three burns of 532-nm diode laser photocoagulation (Oculight; Iridex, Mountain View California; 50-µm spot size, 0.1 second duration, 200 mW) were delivered to each retina using a slit lamp delivery system and a hand held coverslip as a contact lens. Burns were performed in the 9, 12 and 3 o’clock positions of the posterior pole of the retina. […] Two weeks later, mice were anesthetized and perfused with fluorescein-labeled dextran (2×10^6 average molecular weight, Sigma Aldrich), choroidal flatmounts were prepared and CNV area measured. […]
Five mice were used for each dose of peptide, with three burns in each eye (n = 15–18 successful burns in each group). For quantitative analysis of lesion intensity and size, CNV images were batch processed using a custom macro generated in Image-Pro Plus 5.1 (Media Cybernetics, Silver Spring, MD). […] Mean intensity (range between 10–255 gray levels), perimeter, area, and mean diameter (pixels) were calculated for each ROI and exported to excel. […]
Figure 7 Inhibition of laser-induced CNV by TIMP-3 peptides. […] Effect of Tail peptides on CNV was evaluated by Fluorescein angiogram and Scanning Laser Ophthalmoscopy (SLO). […] CNV lesion size (area X density) was calculated for each dose of T3N-peptide (Fig. 7g), Loop6-peptide (Fig. 7h) and Tail-peptide (fig. 7i).

KIKSCYYLPCFVTS [T3-loop 5]
Inhibition of laser-induced CNV (overall statement): no angio-inhibitory activity in vitro or in vivo

RGFTKMPHVQYIHTEASESL [T3-N peptide]
Inhibition of laser-induced CNV (overall statement): not N-peptide inhibit laser-induced CNV | Inhibition of laser-induced CNV (overall statement) (listed as N-terminal): no angio-inhibitory activity in vitro or in vivo
